The record followed here is EP0528997B1, “DISULFIDE DERIVATIVES OF MERCAPTOACYLAMINO ACIDS” (SCHERING CORPORATION, priority 1990, dated 1991).

Molecules are shown by their SMILES.

Assay [1] has as its system spontaneously hypertensive rats (SHR). Nature of the assay: ANF potentiation procedure (antihypertensive effect in combination with ANF). It is filed as in vivo. To be noted: drop in blood pressure; 30 mg/kg sc. The protocol: The antihypertensive effect of mercaptoacylamino acid disulfide derivatives in combination with ANF can be determined according to the following procedures:
Male spontaneously hypertensive rats (SHR), 16-18 weeks old, 270-350 g, are anesthetized with ether and the abdominal aorta is cannulated through the tail artery. The animals are then placed into restrainers to recover from anesthesia (in less than 10 min.) and remain inside throughout the experiments. Through a pressure transducer (Gould P23 series) analog blood pressure signals are registered on a Beckman 612 recorder. A Buxco digital computer is used to obtain mean arterial pressures. Patency of the arterial cannula is maintained with a continuous infusion of 5% dextrose at 0.2 ml/hr. Animals are allowed a 90-min equilibration period. The animals first undergo a challenge with an ANF such as atriopeptin II (AP II) or AP28 30 »g/kg iv and at the end of 60 min. are treated with drug vehicle or a mercapto-acylamino acid subcutaneously. A second ANF challenge is administered 15 min. later and blood pressure is monitored for the next 90 min.

Assay [2] relates to DOCA salt hypertension in the rat. Nature of the assay: DOCA salt hypertension model (antihypertensive effect). Particulars: drop in blood pressure. It is filed as in vivo, Sprague Dawley rats.

Turning to `CCOC(=O)[C@@H](O)CNC(=O)[C@@H](CSSC[C@@H](Cc1ccccc1C)C(=O)NC[C@H](O)C(=O)OCC)Cc1ccccc1C` [Example 3, 1,1'-[DITHIOBIS-[2(S)-(2-METHYLBENZYL)-1-OXO-3,1-PROPANEDIYL]]BIS-(S)-ISOSERINE DIETHYL ESTER], the “ANF Potentiation ΔBP (mmHg)” value in assay [1] is 29 mmHg. Besides, the “DOCA Salt ΔBP (mmHg)” value in assay [2] (0.1 mg/kg po) was 31 mmHg; in assay [2] (1 mg/kg po), 30 mmHg; in assay [2] (10 mg/kg po) it was 44 mmHg.
With `CSCC[C@H](NC(=O)[C@@H](CSSC[C@@H](Cc1ccccc1C)C(=O)N[C@@H](CCSC)C(=O)O)Cc1ccccc1C)C(=O)O` [Example 2, 1,1'-[DITHIOBIS-[2(S)-(2-METHYLBENZYL)-1-OXO-3,1-PROPANEDIYL]]BIS-(S)-METHIONINE], the “ANF Potentiation ΔBP (mmHg)” value in assay [1] is on record as 27 mmHg. The “DOCA Salt ΔBP (mmHg)” value in assay [2] (1 mg/kg po) stood at 41 mmHg; in assay [2] (10 mg/kg po), 57 mmHg.
Take `Cc1ccccc1C[C@H](CSSC[C@@H](Cc1ccccc1C)C(=O)NC[C@H](O)C(=O)O)C(=O)NC[C@H](O)C(=O)O` [Example 4, 1,1'-[DITHIOBIS-[2(S)-(2-METHYLBENZYL)-1-OXO-3,1-PROPANEDIYL]]BIS-(S)-ISOSERINE]: in assay [1], the “ANF Potentiation ΔBP (mmHg)” value amounted to 24 mmHg. Further, the “DOCA Salt ΔBP (mmHg)” value in assay [2] (0.1 mg/kg po) is recorded as 0 mmHg; in assay [2] (1 mg/kg po), 21 mmHg; in assay [2] (10 mg/kg po), 31 mmHg.
As for `CCOC(=O)[C@H](CCSC)NC(=O)[C@@H](CSSC[C@@H](Cc1ccccc1C)C(=O)N[C@@H](CCSC)C(=O)OCC)Cc1ccccc1C` [Example 1, 1,1'-[DITHIOBIS-[2(S)-(2-METHYLBENZYL)-1-OXO-3,1-PROPANEDIYL]]BIS-(S)-METHIONINE DIETHYL ESTER], in assay [1], the “ANF Potentiation ΔBP (mmHg)” value is 0 mmHg. Moreover, the “DOCA Salt ΔBP (mmHg)” value in assay [2] (3 mg/kg po) worked out at 15 mmHg.
